Results: ChEMBL document CHEMBL5120960, “Unveiling the Structure-Activity Relationships at the Orthosteric Binding Site of P2X Ion Channels: The Route to Selectivity” (J Med Chem, 2022)

How the values were obtained:
Format in all cases: cell-based
P2X purinoceptor 2 [1] = molecular target: T1, P2X purinoceptor 2 (Homo sapiens, UniProt Q9UBL9); assay: Antagonist activity at human P2X2R expressing CHO cells assessed as reduction in intracellular Ca2+ influx pretreated with Fluo-4 for 1 hr followed by compound addition and further incubated for 30 mins in presence of ATP by multimode plate reader analysis
T1 sequence (Q9UBL9 whole entry): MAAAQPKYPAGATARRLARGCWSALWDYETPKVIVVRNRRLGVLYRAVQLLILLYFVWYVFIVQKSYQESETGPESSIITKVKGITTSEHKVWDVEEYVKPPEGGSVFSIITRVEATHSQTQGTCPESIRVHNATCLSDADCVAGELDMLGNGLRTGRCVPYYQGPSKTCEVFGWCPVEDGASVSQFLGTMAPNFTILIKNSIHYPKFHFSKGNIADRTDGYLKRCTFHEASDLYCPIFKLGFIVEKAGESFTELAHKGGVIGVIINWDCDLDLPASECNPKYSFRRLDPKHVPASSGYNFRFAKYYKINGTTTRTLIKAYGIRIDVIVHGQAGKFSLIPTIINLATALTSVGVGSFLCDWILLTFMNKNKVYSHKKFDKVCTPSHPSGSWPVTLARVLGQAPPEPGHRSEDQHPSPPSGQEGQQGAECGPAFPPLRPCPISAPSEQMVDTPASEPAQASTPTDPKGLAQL

P2X purinoceptor 4 [2] = molecular target: T2, P2X purinoceptor 4 (Homo sapiens, UniProt Q99571); assay: […] activity at human P2X4R expressing HEK293 cells assessed as reduction in intracellular Ca2+ influx pretreated with Fluo-4 for 1 hr followed by compound addition and further incubated for 30 mins in presence of ATP by multimode plate reader analysis
T2 sequence (Q99571 whole entry): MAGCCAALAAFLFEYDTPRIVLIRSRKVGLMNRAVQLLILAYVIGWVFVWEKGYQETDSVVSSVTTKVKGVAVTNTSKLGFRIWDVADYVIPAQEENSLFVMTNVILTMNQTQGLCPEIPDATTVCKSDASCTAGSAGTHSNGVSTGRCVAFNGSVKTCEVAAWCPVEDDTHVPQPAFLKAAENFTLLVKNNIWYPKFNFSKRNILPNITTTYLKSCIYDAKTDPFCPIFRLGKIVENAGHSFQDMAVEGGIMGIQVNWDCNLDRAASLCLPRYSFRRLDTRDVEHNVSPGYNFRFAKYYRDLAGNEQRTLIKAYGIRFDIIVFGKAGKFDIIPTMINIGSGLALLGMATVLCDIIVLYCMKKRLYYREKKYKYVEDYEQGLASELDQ

P2X purinoceptor 1 [3] = molecular target: T3, P2X purinoceptor 1 (Homo sapiens, UniProt P51575); assay: Antagonist activity at human P2X1R expressing CHO cells assessed as reduction in intracellular Ca2+ influx pretreated with Fluo-4 for 1 hr followed by compound addition and further incubated for 30 mins in presence of ATP by multimode plate reader analysis
T3 sequence (P51575 whole entry): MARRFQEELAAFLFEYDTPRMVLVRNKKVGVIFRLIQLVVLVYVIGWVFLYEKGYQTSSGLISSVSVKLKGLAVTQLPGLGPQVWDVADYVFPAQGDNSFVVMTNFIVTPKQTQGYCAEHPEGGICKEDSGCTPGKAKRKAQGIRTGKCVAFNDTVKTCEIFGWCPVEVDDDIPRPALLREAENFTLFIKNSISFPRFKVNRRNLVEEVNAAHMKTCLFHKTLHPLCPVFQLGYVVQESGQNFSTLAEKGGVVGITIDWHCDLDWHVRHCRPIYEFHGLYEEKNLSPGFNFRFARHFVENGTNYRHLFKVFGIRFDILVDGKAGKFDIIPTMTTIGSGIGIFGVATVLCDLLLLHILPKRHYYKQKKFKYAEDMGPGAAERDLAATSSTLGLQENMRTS

P2X purinoceptor 3 [4] = molecular target: T4, P2X purinoceptor 3 (Homo sapiens, UniProt P56373); assay: Antagonist activity at human P2X3R expressing CHO cells assessed as reduction in intracellular Ca2+ influx pretreated with Fluo-4 for 1 hr followed by compound addition and further incubated for 30 mins in presence of ATP by multimode plate reader analysis
T4 sequence (P56373 whole entry): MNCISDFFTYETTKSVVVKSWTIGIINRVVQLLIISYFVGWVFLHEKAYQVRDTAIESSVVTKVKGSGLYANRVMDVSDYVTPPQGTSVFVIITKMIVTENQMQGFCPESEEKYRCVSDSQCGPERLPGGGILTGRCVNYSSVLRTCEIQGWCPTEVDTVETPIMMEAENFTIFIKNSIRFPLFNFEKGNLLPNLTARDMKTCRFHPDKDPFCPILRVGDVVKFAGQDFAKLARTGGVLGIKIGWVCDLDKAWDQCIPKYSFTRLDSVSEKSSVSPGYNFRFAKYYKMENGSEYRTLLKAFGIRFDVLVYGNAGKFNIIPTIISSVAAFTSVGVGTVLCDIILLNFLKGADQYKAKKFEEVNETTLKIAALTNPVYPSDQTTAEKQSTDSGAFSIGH

P2X purinoceptor 1 [5] = molecular target: T3, P2X purinoceptor 1; assay: […] activity at human P2X1R expressing CHO cells assessed as reduction in intracellular Ca2+ influx pretreated with Fluo-4 for 1 hr followed by compound addition and further incubated for 30 mins in presence of ATP by multimode plate reader analysis
P2X purinoceptor 7 [6] = molecular target: T5, P2X purinoceptor 7 (Homo sapiens, UniProt Q99572); assay: Antagonist activity at human P2X7R expressing HEK293 cells assessed as reduction in intracellular Ca2+ influx pretreated with Fluo-4 for 1 hr followed by compound addition and further incubated for 30 mins in presence of ATP by multimode plate reader analysis
T5 sequence (Q99572 whole entry): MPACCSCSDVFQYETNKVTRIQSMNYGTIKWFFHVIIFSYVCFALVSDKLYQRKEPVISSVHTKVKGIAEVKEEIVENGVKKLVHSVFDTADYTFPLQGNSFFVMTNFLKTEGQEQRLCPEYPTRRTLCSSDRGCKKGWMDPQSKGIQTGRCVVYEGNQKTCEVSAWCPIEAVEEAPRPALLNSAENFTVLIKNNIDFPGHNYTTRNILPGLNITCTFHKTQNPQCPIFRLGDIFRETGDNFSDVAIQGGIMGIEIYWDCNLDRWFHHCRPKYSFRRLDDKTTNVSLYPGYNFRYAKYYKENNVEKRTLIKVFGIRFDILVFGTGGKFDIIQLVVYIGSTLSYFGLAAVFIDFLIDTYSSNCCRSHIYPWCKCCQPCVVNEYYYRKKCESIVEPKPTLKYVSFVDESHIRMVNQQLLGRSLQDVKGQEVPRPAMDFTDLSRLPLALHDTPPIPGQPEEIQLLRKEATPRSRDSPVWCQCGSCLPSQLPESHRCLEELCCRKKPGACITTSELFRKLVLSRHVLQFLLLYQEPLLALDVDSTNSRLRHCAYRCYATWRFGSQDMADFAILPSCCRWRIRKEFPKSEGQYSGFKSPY

P2X purinoceptor 3 [7] = molecular target: T4, P2X purinoceptor 3; assay: […] activity at human P2X3R expressing CHO cells assessed as reduction in intracellular Ca2+ influx pretreated with Fluo-4 for 1 hr followed by compound addition and further incubated for 30 mins in presence of ATP by multimode plate reader analysis
[8] = molecular target: T6, P2X2/P2X3 heterotrimeric receptor (Homo sapiens, UniProt P56373+Q9UBL9); assay: Antagonist activity at human P2X2R/P2X3R expressing CHO cells assessed as reduction in intracellular Ca2+ influx pretreated with Fluo-4 for 1 hr followed by compound addition and further incubated for 30 mins in presence of ATP by multimode plate reader analysis
T6 sequence (Q9UBL9 whole entry): T1 sequence (Q9UBL9 whole entry)
T6 sequence (P56373 whole entry): T4 sequence (P56373 whole entry)

[9] = molecular target: T6, P2X2/P2X3 heterotrimeric receptor; assay: […] activity at human P2X2R/P2X3R expressing CHO cells assessed as reduction in intracellular Ca2+ influx pretreated with Fluo-4 for 1 hr followed by compound addition and further incubated for 30 mins in presence of ATP by multimode plate reader analysis
P2X purinoceptor 2 [10] = molecular target: T1, P2X purinoceptor 2; assay: […] activity at human P2X2R expressing CHO cells assessed as reduction in intracellular Ca2+ influx pretreated with Fluo-4 for 1 hr followed by compound addition and further incubated for 30 mins in presence of ATP by multimode plate reader analysis
P2X purinoceptor 7 [11] = molecular target: T5, P2X purinoceptor 7; assay: […] activity at human P2X7R expressed in HEK293 cells assessed as reduction in YO-PRO-1 iodide dye uptake preincubated for 30 mins followed by YO-PRO-1 iodide addition and measured after 2 hrs by fluorescence based multimode plate reader analysis
P2X purinoceptor 4 [12] = molecular target: T2, P2X purinoceptor 4; assay: Antagonist activity at human P2X4R expressing HEK293 cells assessed as reduction in intracellular Ca2+ influx pretreated with Fluo-4 for 1 hr followed by compound addition and further incubated for 30 mins in presence of ATP by multimode plate reader analysis
P2X purinoceptor 7 [13] = molecular target: T5, P2X purinoceptor 7; assay: […] activity at human P2X7R expressing HEK293 cells assessed as reduction in intracellular Ca2+ influx pretreated with Fluo-4 for 1 hr followed by compound addition and further incubated for 30 mins in presence of ATP by multimode plate reader analysis

IC50 (P2X purinoceptor 2 [1])	EC50 (P2X purinoceptor 4 [2])	IC50 (P2X purinoceptor 1 [3])	IC50 (P2X purinoceptor 3 [4])	EC50 (P2X purinoceptor 1 [5])	IC50 (P2X purinoceptor 7 [6])	EC50 (P2X purinoceptor 3 [7])	IC50 [8]	EC50 [9]	EC50 (P2X purinoceptor 2 [10])	EC50 (P2X purinoceptor 7 [11])	IC50 (P2X purinoceptor 4 [12])	EC50 (P2X purinoceptor 7 [13])	SMILES
10 µM	> 100 µM	15.8 µM	18.6 µM	> 100 µM	> 100 µM	> 100 µM	11.5 µM	> 100 µM	> 100 µM	22.4 µM	6.31 µM	16.6 µM	Nc1ncnc2c1ncn2[C@@H]1O[C@H](COP(=O)(O)OP(=O)(O)OP(=O)(O)O)[C@@H](OC(=O)c2cccc3ccccc23)[C@H]1OC(=O)c1cccc2ccccc12
26.3 µM	1.48 µM	> 100 µM	> 100 µM	> 100 µM	> 100 µM	> 100 µM	> 100 µM	1.2 µM	> 100 µM	> 100 µM	> 100 µM	> 100 µM	Nc1ncnc2c1ncn2[C@@H]1O[C@H](COP(=O)(O)OP(=O)(O)OP(=O)(O)O)[C@@H](OC(=O)c2ccccc2)[C@H]1OC(=O)c1ccccc1
